≈ marks a conversion by molar mass, not a printed value. Calls of active or inactive are those of the source. The calls are words filed in the database; no cut-off is given here.
What was measured:
HCT-8 = assay: Cytotoxicity against human HCT8 cells; type: functional, cell-based
TE-671 = assay: Cytotoxicity against human TE671 cells; type: functional, cell-based
Human alphaherpesvirus 2 = assay: Antiviral activity against HSV2 in african green monkey Vero cells assessed as inhibition of viral plaque formation; type: functional, organism-based
A549 = assay: Cytotoxicity against human A549 cells; type: functional, cell-based
P388 = assay: Cytotoxicity against mouse P388 cells; type: functional, cell-based
KB = assay: Cytotoxicity against human KB cells; type: functional, cell-based

Compound | EC50 (HCT-8; hct-8) | EC50 (TE-671) | Activity (Human alphaherpesvirus 2) | EC50 (A549; a549) | EC50 (P388; p388) | EC50 (KB; kb) | EC50 (HCT-8; Homo sapiens, HCT-8, read-out: EC50) [µg/mL] | EC50 (A549; Homo sapiens, A549, read-out: EC50) [µg/mL] | EC50 (P388; Mus musculus, P388, read-out: EC50) [µg/mL] | EC50 (KB; Homo sapiens, KB, read-out: EC50) [µg/mL]
C[C@@H]1C[C@]2(C[C@@H](C)[C@H]3[C@@H](C[C@@]4(C)[C@@H]5CC[C@H]6C(C)(C)C(=O)CC[C@@]67C[C@@]57CC[C@]34C)O2)OC1=O [PSEUDOLAROLIDE A] | Not Active | Not Active | Active | Not Active | Not Active | Not Active | – | – | – | –
COC(=O)CC[C@]12C[C@]13CC[C@]1(C)[C@H]4[C@H](C)C[C@]5(C[C@@H](C)C(=O)O5)O[C@@H]4C[C@@]1(C)[C@@H]3CC[C@H]2C(C)(C)O [PSEUDOLAROLIDE C] | Not Active | Not Active | – | Not Active | Not Active | Not Active | – | – | – | –
CC1=C[C@]2(C[C@@H](C)[C@H]3[C@@H](C[C@@]4(C)[C@@H]5CC[C@H]6C(C)(C)C(=O)CC[C@@]67C[C@@]57CC[C@]34C)O2)OC1=O [PSEUDOLAROLIDE B] | – | Not Active | Active | – | – | – | 0.73 (≈ 1.56 µM) | 0.67 (≈ 1.44 µM) | 0.79 (≈ 1.69 µM) | 0.49 (≈ 1.05 µM)
C[C@@H]1C[C@]2(C[C@@H](C)[C@H]3[C@@H](C[C@@]4(C)[C@@H]5CC[C@H]6C(C)(C)OC(=O)CC[C@@]67C[C@@]57CC[C@]34C)O2)OC1=O [PSEUDOLAROLIDE D] | Not Active | Not Active | – | Not Active | Not Active | Not Active | – | – | – | –

— ChEMBL document CHEMBL1148180, “The isolation and structural elucidation of four novel triterpene lactones, pseudolarolides A, B, C, and D, from Pseudolarix kaempferi” (J Nat Prod, 1993)
